Measured values taken from ChEMBL document CHEMBL3044644, “Syntheses and antiproliferative activity of some sulfated hydroximinosterols” (Med Chem Res, 2013).

Key:
Format in all cases: functional, cell-based
[1] = Cytotoxicity against Homo sapiens (human) MGC7901 cells assessed as cell viability after 72 hr by MTT assay
[2] = Cytotoxicity against Homo sapiens (human) SMMC-7404 cells assessed as cell viability after 72 hr by MTT assay
HeLa = assay: Cytotoxicity against Homo sapiens (human) HeLa cells assessed as cell viability after 72 hr by MTT assay

| SMILES | IC50 [1] [µM] | IC50 [2] [µM] | IC50 (HeLa) [µM] |
| --- | --- | --- | --- |
| CC(C)CCC[C@@H](C)[C@H]1CC[C@H]2[C@@H]3C/C(=N/O)C4=C[C@@H](OS(=O)(=O)[O-])CC[C@]4(C)[C@H]3CC[C@]12C.[Na+] | > 100 | 62.2 | 25.3 |
| CC[C@H](/C=C/[C@@H](C)[C@H]1CC[C@H]2[C@@H]3C/C(=N/O)C4C[C@@H](OS(=O)(=O)[O-])CC[C@]4(C)[C@H]3CC[C@]12C)C(C)C.[Na+] (some centres not stated) | 27.7 | > 100 | 14.3 |
| CC(C)CCC[C@@H](C)[C@H]1CC[C@H]2[C@@H]3C/C(=N/O)C4C[C@@H](OS(=O)(=O)[O-])CC[C@]4(C)[C@H]3CC[C@]12C.[Na+] (some centres not stated) | 6.5 | 12.9 | 9.6 |
| CC(C)CCC[C@@H](C)[C@H]1CC[C@H]2[C@@H]3C[C@H](OS(=O)(=O)[O-])C4C/C(=N/O)CC[C@]4(C)[C@H]3CC[C@]12C.[Na+] (some centres not stated) | 33.3 | 10.2 | 12.5 |
